# Source: patent publication US11596615B2, “Compositions and methods for treatment of insulin resistance” (Temple University—Of The Commonwealth System Of Higher …, priority 2016, dated 2023)
# Entries after “also recorded” stand apart in the source; their conditions may differ. Counter-ions that a name gives are not always drawn.
# Experiments:
# [1] = Liver microsome stability, rat; format: in vitro ADME, Rat (pooled Sprague Dawley; male); details: male, Sprague Dawley; rat liver microsomes, 1 μM compound, 0.5 mg/ml microsomal protein, 37° C., 2 mM NADPH
# Procedure: The stability of the title compound in the presence of liver microsomes was tested at 1 μM compound and 0.5 mg/ml rat or human microsomal protein, at 37° C. with 2 mM NADPH (standard in vitro screening concentrations). […] The “t1/2” values are the maximum time employed for the respective assays.
# [2] = Adduct formation with 4-HNE by mass spectroscopy; details: equimolar 10 μM APL and 4-HNE, 1 hr incubation at 37° C.; FIG. 6A, 6B; dihydrochloride
# Procedure: The experimental design was to incubate equimolar amounts (10 μM) of APL (dihydrochloride) with 4-HNE and measure adduct formation by mass spectroscopy before and after 1 hr incubation at 37° C.
# db/db mice = assay: Glucose tolerance test in leptin receptor knock-out (db/db) mice; format: in vivo
# Procedure: Leptin receptor knock-out (db/db) mice have severe, rapid, spontaneous and early-onset obesity and insulin resistance that is first recognizable at 4 weeks of age. These animals (5 for each group) were used to determine the effect of (S)-2-amino-6-((3-aminopropyl)amino)hexanoic acid dihydrochloride on impaired glucose tolerance at pre-diabetes level. The groups consisted of (i) db/db mice administered 50 mg/kg b.i.d. p.o. (S)-2-amino-6-((3-aminopropyl)amino)hexanoic acid dihydrochloride; (ii) db/db vehicle control-treated mice; and (iii) heterozygous littermate control mice. The treatment period was for 7 days. Glucose tolerance tests were performed as described above.
# To determine the effect of (S)-2-amino-6-((3-aminopropyl)amino)hexanoic acid dihydrochloride on impaired glucose tolerance after diabetes is established, 6 week old db/db mice were treated with the drug (50 mg/kg b.i.d. p.o.) for 14 days. The positive control group was treated with metformin at the same dose. […] The results establish that the drug can be used to treat both pre-diabetes, and diabetes wherein the diabetic phenotype has been established.
# To assess whether (S)-2-amino-6-((3-aminopropyl)amino)hexanoic acid dihydrochloride delays progression to diabetes or only masks diabetes during treatment period, (i) db/db mice (ii) db/db vehicle control-treated mice; and (iii) heterozygous littermate control mice were treated with and without (S)-2-amino-6-((3-aminopropyl)amino)hexanoic acid dihydrochloride or metformin (50 mg/kg b.i.d. p.o.) for 14 days. The 14 day treatment period was followed by another 14 day period (“wash out period”) in which no treatment was given.
# [3] = Solution stability in PBS, simulated gastric fluid and simulated intestinal fluid; format: physicochemical; details: 37° C.
# Procedure: (§1) The stability of the title compound was tested in the following media, in the following concentrations: (i) 1 μM in mouse (male C57BL/6) plasma, (ii) 1 μM in PBS (with Ca and Mg) (control treatment); (iii) 5 μM in stimulated gastric fluid (SGF; 0.2% NaCl; 84 mM HCl; 0.32% pepsin; pH 1.2); (iv) 5 μM in stimulated intestinal fluid (SIF; 50 mM KP, pH 6.8; 10 mg/ml pancreatin); and (v) 5 μM in PBS (+Ca and Mg) (control treatment). The results are as follows: (i) 1 μM in mouse plasma, t1/2>6 hr at 37° C.; (ii) 1 μM in PBS, t1/2>6 hr at 37° C.; (iii) 5 μM in SGF, t1/2>3 hrs at 37° C.; (iv) 5 μM in SIF, t1/2>3 hrs at 37° C.; and (v) 5 μM in PBS, t1/2>3 hr at 37° C. The “t1/2” values are the maximum time employed for the respective assays.
# [4] = Body weight of diet-induced (HFD) obese mice over two weeks; format: in vivo; details: 10 mg/kg/day
# Procedure: The body weights of diet-induced (HFD) mice with and without (S)-2-amino-6-((3-aminopropyl)amino)hexanoic acid dihydrochloride (10 mg/kg/day) were measured over 14 days.
# In contrast, poglitazone is known to cause water retention and weight gain.
# [5] = system: mice fed high fat diet (HFD); assay: Fasting glucose and glucose tolerance test in HFD mice (Example 11); format: in vivo, C57BL/6J mice; details: two weeks
# Procedure: Thirty-two C57BL/6J mice 8-weeks old were selected and randomly separated. The mice (n=8) were fed ad libitum for two weeks with either CHOW diet or high fat diet (HFD, 60% of fat content). Each group was divided in half 8 animals received regular water and the other 8 received (S)-2-amino-6-((3-aminopropyl)amino)hexanoic acid dihydrochloride dissolved in water so as to administer about 10 mg/kg of the drug body weight per mouse, per day. As an additional experimental control (n=8), a group of mice receiving HFD also received pioglitazone (10 mg/kg). Poglitazone is a well-known anti-diabetic agent. It has the ability to increase glucose uptake into the cells. […] At the end of the two weeks, animals were fasted for 5 hours, weighed, and their tails were clipped to measure fasting blood glucose levels. Immediately after, glucose was administered intraperitoneally (1 mg/g of body weight). Glucose levels were measured at 20, 40, 80 and 140 minutes after glucose administration in a glucose time test (GTT). Animals were euthanized under anesthesia (isoflurane). Blood, liver, fat and muscle tissues were collected and flash frozen for the studies. […]
# [6] = Solution stability in mouse plasma; format: in vitro ADME, mouse (male C57BL/6); details: male, C57BL/6; 1 μM in mouse plasma, 37° C.
# Procedure: as §1
structure (smiles),measurement,setting,value
"NCCCNCCCC[C@H](N)C(=O)O [APL, (S)-2-amino-6-((3-aminopropyl)amino)hexanoic acid dihydrochloride]",half-life at 1 μM,[1],> 1 h
same,microsomal CLint at 1 μM,[1],< 23 µL/min/mg
same,adduct formation with 4-HNE,[2],forms an adduct with 4-HNE after 1 hr of incubation; also recorded: forms an adduct with 4-NHE
same,impaired glucose tolerance after diabetes is established,"db/db mice; 6 week old db/db mice, 50 mg/kg b.i.d. p.o., 14 days, vs metformin at the same dose, FIG. 11",better in reducing impaired glucose tolerance than metformin
same,impaired glucose tolerance after wash out period,"db/db mice; db/db mice, 50 mg/kg b.i.d. p.o. 14 days, then 14 days no treatment, FIG. 12",still effective in reducing impaired glucose tolerance even after 14 days following treatment removal
same,"impaired glucose tolerance, pre-diabetic stage","db/db mice; pre-diabetic db/db mice, 50 mg/kg b.i.d. p.o., 7 days, FIG. 10",normalizes impaired glucose tolerance
same,half-life at 1 μM,[3]; 1 μM in PBS (with Ca and Mg),> 6 h
same,half-life at 5 μM,[3]; 5 μM in PBS (+Ca and Mg),> 3 h
same,half-life at 5 μM,"[3]; simulated gastric fluid (SGF) with pepsin, 5 μM in SGF (pH 1.2, pepsin)",> 3 h
same,half-life at 5 μM,"[3]; simulated intestinal fluid (SIF) with pancreatin, 5 μM in SIF (pH 6.8, pancreatin)",> 3 h
same,body weight,"[4]; HFD obese mice, two weeks, FIG. 9",no effect on body weight
same,toxicity (from body weight),"[4]; mouse, in vivo",lack of significant toxicity
same,glucose tolerance test,"[5]; 10 mg/kg, glucose 1 mg/g i.p., FIG. 8C",drastically improved
same,fasting glucose levels,"[5]; about 10 mg/kg per day, 5 hours fasted, FIG. 8B",reduced fasting glucose levels
same,half-life at 1 μM,[6],> 6 h
